# In patent US10765114B2, “4-amino-6-(pyridyl and 2-substitutedphenyl)-picolinates and 6-amino-2-(pyridyl and 2-substitutedphenyl)-pyrimidine-4-carboxylates and their use as herbicides” (Dow AgroSciences LLC, priority 2013, dated 2020):
# Experiments:
# Experiment in all cases: Postemergence Herbicidal Activity in Direct Seeded Rice
# Format in all cases: in vivo
# [1] = system: BRAPP: broadleaf signalgrass, Brachiaria platyphylla; conditions: for Visual Growth Reduction (%) 21 Days After Application, BRAPP: postemergence, direct seeded rice
# Source text: (§1) Seeds or nutlets of the desired test plant species were planted in a soil matrix prepared by mixing a loam soil (43 percent silt, 19 percent clay, and 38 percent sand, with a pH of about 8.1 and an organic matter content of about 1.5 percent) and river sand in an 80 to 20 ratio. The soil matrix was contained in plastic pots with a surface area of 139.7 cm^2. When required to ensure good germination and healthy plants, a fungicide treatment and/or other chemical or physical treatment was applied. The plants were grown for 10-17 days in a greenhouse with an approximate 14-h photoperiod which was maintained at about 29° C. during the day and 26° C. during the night. Nutrients and water were added on a regular basis and supplemental lighting was provided with overhead metal halide 1000-Watt lamps as necessary. The plants were employed for testing when they reached the second or third true leaf stage.
# (§2) A weighed amount, determined by the highest rate to be tested, of each test compound was placed in 25 mL glass vials and dissolved in a volume of 97:3 v/v acetone-DMSO to obtain 12× stock solutions. […] The concentrated stock solutions were added to the spray solutions so that the final acetone and DMSO concentrations were 16.2% and 0.5%, respectively. Spray solutions were diluted to the appropriate final concentrations with the addition of 10 mL of an aqueous mixture of 1.5% (v/v) Agri-dex crop oil concentrate. The final spray solutions contained 1.25% (v/v) Agri-dex crop oil concentrate. Compound requirements are based upon a 12 mL application volume at a rate of 187 L/ha. Formulated compounds were applied to the plant material with an overhead Mandel track sprayer equipped with 8002E nozzles calibrated to deliver 187 L/ha over an application area of 0.503 square meters (m^2) at a spray height of 18 inches (43 cm) above average plant canopy height. Control plants were sprayed in the same manner with the solvent blank.
# (§3) The treated plants and control plants were placed in a greenhouse as described above and watered by sub-irrigation to prevent wash-off of the test compounds. After 20-22 days, the condition of the test plants, compared with that of the untreated plants, was determined visually and scored on a scale of 0 to 100 percent where 0 corresponds to no injury and 100 corresponds to complete kill and presented as indicated in Table A.
# (§4) By applying the well-accepted probit analysis as described by J. Berkson in Journal of the American Statistical Society, 48, 565 (1953) and by D. Finney in “Probit Analysis” Cambridge University Press (1952), herbicidal injury of a specific compound at various rates can be used to calculate GR20, GR50, GR80 and GR90 values, which are defined as growth reduction factors that correspond to the effective dose of herbicide required to provide plant growth reduction (GR) of 20 percent, 50 percent, 80 percent and 90 percent, respectively. Probit analysis was applied to data collected from multiple dose rates of individual compounds utilizing the procedures explained in the following examples. The analysis of those dose rates is captured in the following tables
# [2] = system: CYPSS: sedge including small-flower flatsedge (Cyperus difformis), yellow nutsedge (Cyperus esculentus), rice flatsedge (Cyperus iria); conditions: for Visual Growth Reduction (%) 21 Days After Application, CYPSS: postemergence, direct seeded rice
# Source text: as §1, §2, §3, §4
# [3] = system: ECHSS: including barnyardgrass, (Echinochloa crus-galli), junglerice, (Echinochloa colonum); conditions: for Visual Growth Reduction (%) 21 Days After Application, ECHSS: postemergence, direct seeded rice
# Source text: as §1, §2, §3, §4
# [4] = system: LEFSS: sprangletop including Chinese sprangletop (Leptochloa chinensis), green sprangletop (Leptochloa dubia); conditions: for Visual Growth Reduction (%) 21 Days After Application, LEFSS: postemergence, direct seeded rice
# Source text: as §1, §2, §3, §4
# ORYSS: Oryza sativa = conditions: for Visual Growth Reduction (%) 21 Days After Application, ORYSS: postemergence, direct seeded rice
# Source text: as §1, §2, §3, §4
# [5] = system: SCPJU: Japanese bulrush, Schoenoplectus juncoides; conditions: for Visual Growth Reduction (%) 21 Days After Application, SCPJU: postemergence, direct seeded rice
# Source text: as §1, §2, §3, §4
# [6] = system: SEBEX: hemp sesbania, Sesbania exaltata; conditions: for Visual Growth Reduction (%) 21 Days After Application, SEBEX: postemergence, direct seeded rice
# Source text: as §1, §2, §3, §4
# [7] = Growth reduction of 50% of plant growth, probit analysis
# [8] = Growth reduction of 80% of plant growth, probit analysis
structure (smiles),measurement,setting,value
Nc1c(Cl)c(C(=O)O)nc(-c2ccc(C(F)(F)F)nc2)c1Cl [Compound 33],"Visual Growth Reduction (%) 21 Days After Application, BRAPP",[1]; 35 g ai/ha,A (95-100)
same,"Visual Growth Reduction (%) 21 Days After Application, BRAPP",[1]; 70 g ai/ha,A (95-100)
same,"GR50, BRAPP",[1]; [7],3 g ai/ha
same,"GR80, BRAPP",[1]; [8],11 g ai/ha
same,"Visual Growth Reduction (%) 21 Days After Application, CYPSS",[2]; 35 g ai/ha,A (95-100)
same,"Visual Growth Reduction (%) 21 Days After Application, CYPSS",[2]; 70 g ai/ha,A (95-100)
same,"GR50, CYPSS",[2]; [7],4 g ai/ha
same,"GR80, CYPSS",[2]; [8],7 g ai/ha
same,"Visual Growth Reduction (%) 21 Days After Application, ECHSS",[3]; 35 g ai/ha,C (75-84)
same,"Visual Growth Reduction (%) 21 Days After Application, ECHSS",[3]; 70 g ai/ha,A (95-100)
same,"GR50, ECHSS",[3]; [7],1 g ai/ha
same,"GR80, ECHSS",[3]; [8],1 g ai/ha
same,"Visual Growth Reduction (%) 21 Days After Application, LEFSS",[4]; 35 g ai/ha,E (45-59)
same,"Visual Growth Reduction (%) 21 Days After Application, LEFSS",[4]; 70 g ai/ha,C (75-84)
same,"GR50, LEFSS",[4]; [7],30 g ai/ha
same,"GR80, LEFSS",[4]; [8],77 g ai/ha
same,"Visual Growth Reduction (%) 21 Days After Application, ORYSS",ORYSS: Oryza sativa; 35 g ai/ha,D (60-74)
same,"Visual Growth Reduction (%) 21 Days After Application, ORYSS",ORYSS: Oryza sativa; 70 g ai/ha,C (75-84)
same,"GR20, ORYSS","ORYSS: Oryza sativa; Growth reduction of 20% of plant growth, probit analysis",8 g ai/ha
same,"Visual Growth Reduction (%) 21 Days After Application, SCPJU",[5]; 35 g ai/ha,A (95-100)
same,"Visual Growth Reduction (%) 21 Days After Application, SCPJU",[5]; 70 g ai/ha,A (95-100)
same,"GR50, SCPJU",[5]; [7],<17.5 g ai/ha
same,"GR80, SCPJU",[5]; [8],<17.5 g ai/ha
same,"Visual Growth Reduction (%) 21 Days After Application, SEBEX",[6]; 35 g ai/ha,A (95-100)
same,"Visual Growth Reduction (%) 21 Days After Application, SEBEX",[6]; 70 g ai/ha,A (95-100)
same,"GR50, SEBEX",[6]; [7],1 g ai/ha
same,"GR80, SEBEX",[6]; [8],1 g ai/ha
